What follows are molecules tested against Human Factor D (Homo sapiens (Human), UniProt P00746) (assay: Human Factor D Assay). Settings: Table 7; read-out: IC5 (Stars).
Sequence of Human Factor D (P00746 26-253): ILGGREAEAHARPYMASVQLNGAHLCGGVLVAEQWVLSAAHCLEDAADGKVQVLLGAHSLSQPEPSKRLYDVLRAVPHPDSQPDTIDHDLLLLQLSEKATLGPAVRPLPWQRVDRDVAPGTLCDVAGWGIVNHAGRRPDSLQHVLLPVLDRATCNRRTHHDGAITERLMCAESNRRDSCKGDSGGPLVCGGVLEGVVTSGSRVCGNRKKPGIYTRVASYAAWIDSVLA
Type: biochemical
Procedure, shortened: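 Serum-purified human factor D (80 nM final) preincubated with compound 5 min at room temperature in 50 mM Tris, 1 M NaCl, pH 7.5. Z-L-Lys-SBzl and DTNB added at 100 μM each; A405 followed every 30 s for 30 min. IC50 by nonlinear regression of rates.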
With COc1ncc(-c2cc(CC(=O)N3[C@H](C(=O)Nc4nc(Br)ccc4C)C[C@@]4(C)C[C@@H]34)cc(-c3cnc(OC)nc3)c2)cn1 [Compound T-109, (1R,3S,5R)-2-(2-(3,5-bis(2-methoxypyrimidin-5-yl)phenyl)acetyl)-N-(6-bromo-3-methylpyridin-2-yl)-5-methyl-2-azabicyclo[3.1.0]hexane-3-carboxamide] the IC50 was > 10000 nM. For COc1ncc(-c2cc(CC(=O)N3C[C@H](F)C[C@H]3C(=O)Nc3cccc(-c4ccccc4Cl)c3F)cc(-c3cnc(OC)nc3)c2)cn1 [Compound T-110, (2S,4R)-1-(2-(3,5-bis(2-methoxypyrimidin-5-yl)phenyl)acetyl)-N-(2′-chloro-2-fluoro-[1,1′-biphenyl]-3-yl)-4-fluoropyrrolidine-2-carboxamide], the IC50 was > 10000 nM. For Cc1ncc(-c2cc(CC(=O)N3C[C@H](F)C[C@H]3C(=O)Nc3cccc(Br)n3)cc(C(N)=O)c2)cn1 [Compound T-111, (2S,4R)-N-(6-bromopyridin-2-yl)-1-(2-(3-carbamoyl-5-(2-methylpyrimidin-5-yl)phenyl)acetyl)-4-fluoropyrrolidine-2-carboxamide], the IC50 was 1000 to 10000 nM. In the case of Cc1ncc(-c2cc(CC(=O)N3C[C@H](F)C[C@H]3C(=O)Nc3cccc(-c4ccccc4Cl)c3F)cc(C(N)=O)c2)cn1 [Compound T-112, (2S,4R)-1-(2-(3-carbamoyl-5-(2-methylpyrimidin-5-yl)phenyl)acetyl)-N-(2′-chloro-2-fluoro-[1,1′-biphenyl]-3-yl)-4-fluoropyrrolidine-2-carboxamide], the IC50 is reported as < 1000 nM. In the case of Cc1ncc(-c2cc(CC(=O)N3[C@H](C(=O)Nc4nc(Br)ccc4C)C[C@@]4(C)C[C@@H]34)cc(C(N)=O)c2)cn1 [Compound T-113, (1R,3S,5R)-N-(6-bromo-3-methylpyridin-2-yl)-2-(2-(3-carbamoyl-5-(2-methylpyrimidin-5-yl)phenyl)acetyl)-5-methyl-2-azabicyclo[3.1.0]hexane-3-carboxamide], the IC50 is reported as 1000 to 10000 nM. Cc1ncc(-c2cc(C#N)cc(CC(=O)N3C[C@H](F)C[C@H]3C(=O)Nc3cccc(Br)n3)c2)cn1 [Compound T-114, (2S,4R)-N-(6-bromopyridin-2-yl)-1-(2-(3-cyano-5-(2-methylpyrimidin-5-yl)phenyl)acetyl)-4-fluoropyrrolidine-2-carboxamide] was tested, and the IC50 was 1000 to 10000 nM. Cc1ncc(-c2cc(C#N)cc(CC(=O)N3[C@H](C(=O)Nc4nc(Br)ccc4C)C[C@@]4(C)C[C@@H]34)c2)cn1 [Compound T-115, (1R,3S,5R)-N-(6-bromo-3-methylpyridin-2-yl)-2-(2-(3-cyano-5-(2-methylpyrimidin-5-yl)phenyl)acetyl)-5-methyl-2-azabicyclo[3.1.0]hexane-3-carboxamide] showed an IC50 of 1000 to 10000 nM. For Cc1ncc(-c2cc(C#N)cc(CC(=O)N3C[C@H](F)C[C@H]3C(=O)Nc3cccc(-c4ccccc4Cl)c3F)c2)cn1 [Compound T-116, (2S,4R)-N-(2′-chloro-2-fluoro-[1,1′-biphenyl]-3-yl)-1-(2-(3-cyano-5-(2-methylpyrimidin-5-yl)phenyl)acetyl)-4-fluoropyrrolidine-2-carboxamide], the IC50 was < 1000 nM. In the case of Cc1ncc(-c2cc(CC(=O)N3[C@H](C(=O)Nc4nc(Br)ccc4C)C[C@@]4(C)C[C@@H]34)cc(-c3cnc(O)nc3)c2)cn1 [Compound T-117, (1R,3S,5R)-N-(6-bromo-3-methylpyridin-2-yl)-2-(2-(3-(2-hydroxypyrimidin-5-yl)-5-(2-methylpyrimidin-5-yl)phenyl)acetyl)-5-methyl-2-azabicyclo[3.1.0]hexane-3-carboxamide], the IC50 is reported as > 10000 nM. For Cc1ncc(-c2cc(CC(=O)N3C[C@H](F)C[C@H]3C(=O)Nc3cccc(-c4ccccc4Cl)c3F)cc(-c3cnc(O)nc3)c2)cn1 [Compound T-118, (2S,4R)-N-(2′-chloro-2-fluoro-[1,1′-biphenyl]-3-yl)-4-fluoro-1-(2-(3-(2-hydroxypyrimidin-5-yl)-5-(2-methylpyrimidin-5-yl)phenyl)acetyl)pyrrolidine-2-carboxamide], the IC50 was > 10000 nM. Cc1ncc(-c2cc(CC(=O)N3C[C@H](F)C[C@H]3C(=O)Nc3cccc(-c4ccccc4Cl)c3F)cc(OCC(=O)O)c2)cn1 [Compound T-120, 2-(3-(2-((2S,4R)-2-((2′-chloro-2-fluoro-[1,1′-biphenyl]-3-yl)carbamoyl)-4-fluoropyrrolidin-1-yl)-2-oxoethyl)-5-(2-methylpyrimidin-5-yl)phenoxy)acetic acid] gave an IC50 of 1000 to 10000 nM. With C#CCNC(=O)c1nn(CC(=O)N2[C@H](C(=O)Nc3nc(Br)ccc3C)C[C@@]3(C)C[C@@H]23)c2ccc(-c3cnc(C)nc3)cc12 [Compound T-121, 1-(2-((1R,3S,5R)-3-((6-bromo-3-methylpyridin-2-yl)carbamoyl)-5-methyl-2-azabicyclo[3.1.0]hexan-2-yl)-2-oxoethyl)-5-(2-methylpyrimidin-5-yl)-N-(prop-2-yn-1-yl)-1H-indazole-3-carboxamide] the IC50 was < 1000 nM. Cc1ccc(Br)nc1NC(=O)[C@@H]1C[C@@]2(CNC(=O)COCCOCCNC(=O)COCCOCCNC(=O)CC[C@H](NC(=O)CCCCCCCCCCCCCCCCC(=O)O)C(=O)O)C[C@H]2N1C(=O)Cn1nc(C(N)=O)c2ccc(C(=O)NS(=O)(=O)C3CC3)cc21 [Compound T-126, (S)-1-((1R,3S,5R)-3-((6-bromo-3-methylpyridin-2-yl)carbamoyl)-2-(2-(3-carbamoyl-6-((cyclopropylsulfonyl)carbamoyl)-1H-indazol-1-yl)acetyl)-2-azabicyclo[3.1.0]hexan-5-yl)-24-carboxy-3,12,21,26-tetraoxo-5,8,14,17-tetraoxa-2,11,20,25-tetraazatritetracontan-43-oic acid] was tested, and the IC50 was < 1000 nM. In the case of CC(=O)c1nn(CC(=O)N2[C@H](C(=O)Nc3nc(Br)ccc3C)C[C@@]3(CNC(=O)COCCOCCNC(=O)COCCOCCNC(=O)CCCCCCCCCCCCCCCCC(=O)O)C[C@@H]23)c2ccc(OC(=O)NC3CC3)cc12 [Compound T-128, 1-((1R,3S,5R)-2-(2-(3-acetyl-5-((cyclopropylcarbamoyl)oxy)-1H-indazol-1-yl)acetyl)-3-((6-bromo-3-methylpyridin-2-yl)carbamoyl)-2-azabicyclo[3.1.0]hexan-5-yl)-3,12,21-trioxo-5,8,14,17-tetraoxa-2,11,20-triazaoctatriacontan-38-oic acid], the IC50 is reported as < 1000 nM. For COC(=O)c1cc2c(cc1-c1cnc(C)nc1)c(C(C)=O)nn2CC(=O)N1[C@H](C(=O)Nc2nc(Br)ccc2C)C[C@@]2(C)C[C@@H]12 [Compound T-129, methyl 3-acetyl-1-(2-((1R,3S,5R)-3-((6-bromo-3-methylpyridin-2-yl)carbamoyl)-5-methyl-2-azabicyclo[3.1.0]hexan-2-yl)-2-oxoethyl)-5-(2-methylpyrimidin-5-yl)-1H-indazole-6-carboxylate], the IC50 was < 1000 nM. With CC(=O)c1nn(CC(=O)N2C[C@H](F)C[C@H]2C(=O)Nc2nc(Br)ccc2C)c2cc(OCP(=O)(O)O)ccc12 [Compound T-130, (((3-acetyl-1-(2-((2S,4R)-2-((6-bromo-3-methylpyridin-2-yl)carbamoyl)-4-fluoropyrrolidin-1-yl)-2-oxoethyl)-1H-indazol-6-yl)oxy)methyl)phosphonic acid] the IC50 was < 1000 nM. CC(=O)c1nn(CC(=O)N2C[C@H](F)C[C@H]2C(=O)NCc2cccc(Cl)c2F)c2cc(OCP(=O)(O)O)ccc12 [Compound T-131, (((3-acetyl-1-(2-((2S,4R)-2-((3-chloro-2-fluorobenzyl)carbamoyl)-4-fluoropyrrolidin-1-yl)-2-oxoethyl)-1H-indazol-6-yl)oxy)methyl)phosphonic acid] was tested, and the IC50 was < 1000 nM.
